Counter-ions that a name gives are not always drawn.
How the values were obtained:
[1] = Particle size by laser diffraction (Mastersizer 2000, Scirocco 2000 dry dispersion); format: physicochemical
Procedure: (§1) Particle size analysis by laser diffraction was conducted in a Malvern Mastersizer 2000 using a Scirocco 2000 dry dispersion unit.
Characterization and understanding of the particle and bulk properties of the API, the excipients, and blends were important in the development and manufacturing of pharmaceutical formulations and finished products. Size, shape, bulk density and flow properties of CIPRO, excipients (specifically fillers), and blends were characterized to assist in formulation development. The particle size of CIPRO and excipients were measured in the Scirocco 2000, dry powder dispersion unit of Mastersizer 2000 particle size analyzer (Malvern Instruments Ltd.). CIPRO or excipient was placed in the enclosed vibratory tray of Scirocco 2000. The Scirocco 2000 uses compressed air to transport and suspend the particles of the sample while they pass through the air cell. The vibratory tray of Scirocco 2000 was vibrated to feed the powder at the 50% feed rate setting. The powder was dispersed through the air cell at an air pressure of 2 bar. The Mastersizer 2000 reported volume-weighted particle sizes. The median size of fumed silica CAB-O-SIL® M-5P is about 14 nm.

[2] = Powder compressibility (FT4 Powder Rheometer); format: physicochemical
Procedure: (§2) The bulk density was measured using the conditioned bulk density test, performed before any other test in the FT4. Powder flow property was measured using the shear cell test. The compressibility of the powders under investigation was also measured. Bulk density is an important parameter for determining the amount of powder that can fit in space such as blender, hopper of a tablet press or a tablet die. The shear test yields various powder flow measurements including a flow coefficient. The flow function coefficient (FFC) is used as an indicator of the flowability of a powder and is defined as the ratio of the major principle stress to the unconfined yield strength. The FFC was obtained using a normal stress of 3 kPa. FFC values can be separated into different regimes: FFC<1, not flowing; 1<FFC<2, very cohesive; 2<FFC<4, cohesive; 4<FFC<10, easy flowing, and FFC>10, free-flowing. Powder compressibility was also measured. Compressibility is not a direct measurement of flowability; however a free-flowing powder usually has a low compressibility value. A compressibility value greater than 30% indicates poor powder flow.

[3] = Karl Fischer analysis of lattice water; format: physicochemical; details: KF analysis of oven dried samples
Procedure: as §1
Furthermore, no significant loss of crystallinity can be observed from the baseline. The lattice water content can be quantified from KF analysis of the off-line oven dried samples collected at different times during the process. […] As expected, the cake contains approximately 19 wt % water at the start of the drying process, coming from the residual wash solvent that contains 20 vol % water (24 wt %), but diluted by the solid API. […] This value is in accordance with the observations from XRPD analysis, with the monohydrate salt of ciprofloxacin HCl having a 4.7 wt % stoichiometric water content. As the drying step progresses, the total water concentration in the cake decreases while the lattice water is maintained constant. With the USP specifications giving a target water content between 4.7 and 6.7 wt %, the obtained drug substance started meeting the specifications after 50 min of drying. This time coincides with the point at which the cake dry matter content was near 100%.

[4] = after 140 min of drying, 50° C., 0.5 bar
[5] = Shear cell test, flow function coefficient (FT4 Powder Rheometer); format: physicochemical
Procedure: as §2

[6] = processed CIPRO particles, Table 3
[7] = processed CIPRO particles, Table 3, Hydrochloride Monohydrate
[8] = Table 2 materials, volume-weighted, dry dispersion 2 bar

Row | Compound | Particle size d10 [1, 7] | Particle size d50 [1, 7] | Particle size d90 [1, 7] | Compressibility [2, 7] | other results
1 | O=C(O)c1cn(C2CC2)c2cc(N3CCNCC3)c(F)cc2c1=O [CIPRO (Commercial, un-processed), Ciprofloxacin Hydrochloride Monohydrate] |  |  |  |  | Particle size d10 [1, 6]: 3.75 μm; Particle size d50 [1, 6]: 12.49 μm; Particle size d90 [1, 6]: 439.56 μm; Compressibility [2, 6]: 38.9%
2 | Cl.O.O=C(O)c1cn(C2CC2)c2cc(N3CCNCC3)c(F)cc2c1=O [CIPRO (w/o US, Grinder designed at MIT), Ciprofloxacin Hydrochloride Monohydrate] | 2.82 μm | 14.45 μm | 169.73 μm |  | 
3 | Cl.O.O=C(O)c1cn(C2CC2)c2cc(N3CCNCC3)c(F)cc2c1=O [CIPRO (US & Krups Grinder), Ciprofloxacin Hydrochloride Monohydrate] | 1.93 μm | 7.09 μm | 65.36 μm | 38.8% | 
4 | O=C(O)c1cn(C2CC2)c2cc(N3CCNCC3)c(F)cc2c1=O [Ciprofloxacin HCl (CIPRO), Ciprofloxacin Hydrochloride Monohydrate] |  |  |  |  | Lattice water content of the crystalline phase [3]: 6.2 wt %; Crystal structure after drying (XRPD) [4]: retained the original crystal structure
5 | Cl.O.O=C(O)c1cn(C2CC2)c2cc(N3CCNCC3)c(F)cc2c1=O [CIPRO (w/o US, Krups Grinder), Ciprofloxacin Hydrochloride Monohydrate] | 1.23 μm | 3.88 μm | 33.26 μm | 52.6% | Compressibility ([2]; processed CIPRO particles, Table 3, listed as CIPRO (w/o use of a Krups Grinder), Hydrochloride Monohydrate): 52.6%
6 | Cl.O.O=C(O)c1cn(C2CC2)c2cc(N3CCNCC3)c(F)cc2c1=O [CIPRO (US & Morter-Pastle), Ciprofloxacin Hydrochloride Monohydrate] | 3.01 μm | 8.67 μm | 24.02 μm | 43.6% | 
7 | Magnesium stearate |  |  |  |  | Particle size d10 [1, 8]: 2.76 μm; Particle size d50 [1, 8]: 6.86 μm; Particle size d90 [1, 8]: 15.10 μm; Compressibility ([2]; Table 2 materials): 38.97%; FFC (Flow function coefficient) ([5]; Table 2 materials, normal stress of 3 kPa): 5.18; Flowability by Schulze classification ([5]; based on FFC): flows easily

Reference: patent US11911719B2, “Devices and methods for the integrated filtration, drying, and mechanical processing of active pharmaceutical ingredients” (Massachusetts Institute of Technology, priority 2019, dated 2024)
